Data on 18 molecules can be found in patent publication US20220169598A1, “HALOGENATED PHENYLSULFONAMIDE HYDROXAMIC ACID COMPOUNDS, COMPOSITIONS AND USES THEREOF AS SELECTIVE HDAC6 INHIBITORS” (2681603 ONTARIO INC., priority 2019, published 2022).

One data set concerns MV-4-11. Kind of data set: Cytotoxicity in cell lines. Particulars: Homo sapiens. It is filed as cell-based. The procedure:
(§1) The cytotoxicity of exemplary compounds of the application was tested in multiple cell lines including MV-4-11, MOLM-13, MCF-7, MRC9, K562 and MM.1S. The therapeutic index was evaluated by determining the toxicity of the exemplary compounds in healthy cell lines including fibroblasts and HUVEC.

The test system of another data set is MM.1S. Description: Cytotoxicity in cell lines. It is filed as cell-based. As to conditions: Homo sapiens, MM1.S; Table 4. As for the experimental part: as §1
In the next data set the test system is K562. Description: Cytotoxicity in cell lines. In kind it is cell-based. Particulars: Homo sapiens. As for the experimental part: as §1
The subject of the next data set is MOLM-13. Kind of data set: Cytotoxicity in cell lines. In kind it is cell-based. As to conditions: Homo sapiens. The procedure:
as §1

For the next data set, the target named is T1, HDAC6 (Homo sapiens, UniProt Q9UBN7).
T1 sequence (Q9UBN7 1-1215): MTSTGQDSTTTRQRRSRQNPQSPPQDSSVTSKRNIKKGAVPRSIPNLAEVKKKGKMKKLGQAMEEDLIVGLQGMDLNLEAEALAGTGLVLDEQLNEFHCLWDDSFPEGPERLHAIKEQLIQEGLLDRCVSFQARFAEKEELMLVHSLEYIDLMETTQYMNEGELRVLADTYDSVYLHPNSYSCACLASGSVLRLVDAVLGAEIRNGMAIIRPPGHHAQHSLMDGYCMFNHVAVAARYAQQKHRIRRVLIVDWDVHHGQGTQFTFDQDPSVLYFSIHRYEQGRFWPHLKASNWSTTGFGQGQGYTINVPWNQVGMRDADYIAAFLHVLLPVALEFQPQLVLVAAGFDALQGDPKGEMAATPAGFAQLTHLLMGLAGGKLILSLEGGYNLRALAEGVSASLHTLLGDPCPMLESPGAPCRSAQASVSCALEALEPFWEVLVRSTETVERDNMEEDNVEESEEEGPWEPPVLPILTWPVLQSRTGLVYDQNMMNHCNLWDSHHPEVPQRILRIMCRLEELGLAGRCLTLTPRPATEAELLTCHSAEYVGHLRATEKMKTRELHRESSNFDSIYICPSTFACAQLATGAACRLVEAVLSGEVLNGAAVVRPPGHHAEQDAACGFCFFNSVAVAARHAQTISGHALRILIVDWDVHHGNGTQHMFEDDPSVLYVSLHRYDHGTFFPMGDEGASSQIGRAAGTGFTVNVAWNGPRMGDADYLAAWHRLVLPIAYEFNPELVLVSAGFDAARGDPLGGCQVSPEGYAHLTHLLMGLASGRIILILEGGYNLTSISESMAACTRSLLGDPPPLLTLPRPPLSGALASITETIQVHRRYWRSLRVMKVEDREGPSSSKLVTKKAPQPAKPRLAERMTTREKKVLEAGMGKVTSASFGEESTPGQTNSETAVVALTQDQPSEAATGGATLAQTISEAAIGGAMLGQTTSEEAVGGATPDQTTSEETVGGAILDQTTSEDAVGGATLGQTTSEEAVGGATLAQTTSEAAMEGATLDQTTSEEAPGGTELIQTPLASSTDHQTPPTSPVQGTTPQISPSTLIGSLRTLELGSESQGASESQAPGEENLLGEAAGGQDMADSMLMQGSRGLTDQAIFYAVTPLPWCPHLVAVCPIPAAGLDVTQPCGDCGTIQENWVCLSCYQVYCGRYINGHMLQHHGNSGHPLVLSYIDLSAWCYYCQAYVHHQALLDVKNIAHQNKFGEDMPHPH
Description: in vitro activity-based HDAC assay. In kind it is biochemical. As to conditions: ranges given; read-out: IC50 for HDAC6. The procedure: The exemplary compounds of Formula I and structurally related compounds were synthesized to assess their structure-activity relationship. […] The IC50 values for each exemplary compound were used to calculate the selectivity of the exemplary compounds for Formula I to HDAC6. The selectivity of each exemplary compound for HDAC6 was determined from examining the potency of HDAC6 in relation to the highest binding affinity of the other HDAC isoforms tested.

For the next data set, the system named is MRC9. Description: Cytotoxicity in cell lines. In kind it is cell-based. As to conditions: Table 5. The procedure:
as §1

The next data set has as its system HUVEC. Description: Toxicity in healthy cell lines. Particulars: Homo sapiens, read-out: IC50 HUVEC. It is filed as cell-based. The procedure: as §1
A further data set deals with Normal Human Fibroblast. Kind of data set: Toxicity in healthy cell lines. In kind it is cell-based. Particulars: read-out: IC50 Normal Human Fibroblast. As for the experimental part: as §1
The nature of data set [1]: Kinetic solubility by analytical HPLC. In kind it is physicochemical. Particulars: PBS with 5% (v/v) DMSO, aqueous with cosolvent or surfactant or cyclodextrin, kinetic from dmso stock; PBS + 5% DMSO; initial concentration 300 μM; read-out: Saturation Concentration. As for the experimental part:
The initial concentration of each exemplary compound was 300 μM.

The next data set relates to panel of 97 kinases. Kind of data set: Kinome screen. It is filed as biochemical. As to conditions: kinase screen.
The next data set deals with HeLa cells. Description: Immunofluorescence analysis of α-tubulin and histone H3 acetylation. It is filed as cell-based. As to conditions: 6 h treatment. An excerpt:
Similar analysis is shown for exemplary compound I-34 in FIG. 19.

The mark [2] stands for this setting: MV4-11, Table 4, read-out: IC50 MV-411.
Setting [3] is: MV4-11, Table 5, read-out: IC50 MV-411.
The mark [4] stands for this setting: K562, Table 5, read-out: IC50 K562.
Where [5] appears, read: MOLM-13, Table 5, read-out: IC50 MOLM-13.
[6] abbreviates: K562, Table 4, read-out: IC50 K562.
Where [7] appears, read: MOLM-13, Table 4, read-out: IC50 MOLM-13.

Where two headings read alike, the source gives them in different places. A value given as a limit tells only on which side of the number the result lay.

On to `CC(C)CN(Cc1ccc(C(=O)NO)cc1)S(=O)(=O)c1cc(F)c(F)c(F)c1F` [Compound I-54, N-hydroxy-4-(((2,3,4,5-tetrafluoro-N-isobutylphenyl)sulfonamido)methyl)benzamide], for which the IC50 was found to be 500 nM with MV-4-11 (setting [2]) and 700 nM in the data set with MM.1S.
Turning to `COc1cc(/C=C/C(=O)NO)ccc1CN(Cc1cccnc1F)S(=O)(=O)c1cc(F)c(F)c(F)c1F` [Compound I-77], the IC50 with MV-4-11 (setting [3]) was 1100 nM; with K562 (setting [4]) it was 72800 nM; with MOLM-13 (setting [5]), 3300 nM.
For the molecule `O=C(/C=C/c1ccc(CN(C2CCCC2)S(=O)(=O)c2c(F)c(F)c(F)c(F)c2F)cc1)NO` [Compound I-57, (E)-3-(4-((N-cyclopentyl-2,3,4,5,6-pentafluorophenylsulfonamido)methy)phenyl)-N-hydroxyacrylamide], the IC50 at HDAC6 is 10 to 30 nM; in the data set on MRC9, greater than 50000 nM.
On to `O=C(NO)c1ccc(CN(C2CCCC2)S(=O)(=O)c2cc(F)c(F)c(F)c2F)cc1` [Compound I-51, 4-(((N-cyclopentyl-2,3,4,5-tetrafluorophenyl)sulfonamido)methyl)-N-hydroxybenzamide], for which the IC50 with MV-4-11 (setting [2]) is 2800 nM; in the data set on MM.1S, 2700 nM.
For the molecule `O=C(/C=C/c1ccc(CN(Cc2cccnc2F)S(=O)(=O)c2cc(F)c(F)c(F)c2F)c(C(F)(F)F)c1)NO` [Compound I-79], the concentration for half-maximal inhibition (IC50) with MV-4-11 (setting [3]) came out at 329 nM; with K562 (setting [4]) it was 25900 nM; with MOLM-13 (setting [5]), 7900 nM.
Regarding `O=C(NO)c1ccc(CN(Cc2cccnc2F)S(=O)(=O)c2cc(F)c(F)c(F)c2F)c(F)c1` [Compound I-32, 3-fluoro-N-hydroxy-4-((2,3,4,5-tetrafluoro-N-((2-fluoropyridin-3-yl)methyl)phenylsulfonamido)methyl)benzamide], the half-maximal inhibitory concentration (IC50) stood at 5100 nM in the data set with HUVEC (Table 4, healthy cells); 7100 nM with Normal Human Fibroblast (Table 4, healthy cells); 389 nM with MV-4-11 (setting [2]); 8600 nM in the data set with K562 (setting [6]); 1980 nM in the data set on MOLM-13 (setting [7]).
As to `O=C(NO)c1ccc(CN(CCc2ccccc2F)S(=O)(=O)c2cc(F)c(F)c(F)c2F)cc1` [Compound I-21, N-hydroxy-4-((2,3,4,5-tetrafluoro-N-(2-fluorophenethyl)phenylsulfonamido)methyl)benzamide], the IC50 was found to be 478 nM in the data set on MV-4-11 (setting [2]), 7900 nM in the data set with K562 (setting [6]) and 1700 nM in the data set with MOLM-13 (setting [7]).
Regarding `CC(C)N(Cc1ccc(CC(=O)NO)cc1)S(=O)(=O)c1cc(F)c(F)c(F)c1F` [Compound I-70, N-hydroxy-2-(4-((2,3,4,5-tetrafluoro-N-isopropylphenylsulfonamido)methyl)phenyl)acetamide], the IC50 is 100 to 150 nM at HDAC6 and 2500 nM with MV-4-11 (setting [3]).
Take `O=C(NO)c1ccc(CN(Cc2cccnc2F)S(=O)(=O)c2cc(F)c(F)c(F)c2F)cc1` [Compound I-19, N-hydroxy-4-((2,3,4,5-tetrafluoro-N-((2-fluoropyridin-3-yl)methyl)phenylsulfonamido)methyl)benzamide]: the IC50 in the data set with K562 (setting [6]) is 5600 nM.
In the case of `O=C(/C=C/c1ccc(CN(Cc2ccc(F)cc2)S(=O)(=O)c2c(F)c(F)c(F)c(F)c2F)cc1)NO` [Compound I-59, (E)-N-hydroxy-3-(4-((2,3,4,5,6-pentafluoro-N-(4-fluorobenzyl)phenylsulfonamido)methyl)phenyl)acrylamide], the concentration for half-maximal inhibition (IC50) at HDAC6 is 10 to 30 nM; in the data set with MV-4-11 (setting [3]) it was 590 nM.
Regarding `O=C(NO)c1ccc(CN(Cc2cccnc2)S(=O)(=O)c2cc(F)c(F)c(F)c2F)c(F)c1` [Compound I-30, 3-fluoro-N-hydroxy-4-((2,3,4,5-tetrafluoro-N-(pyridin-3-ylmethyl)phenylsulfonamido)methyl)benzamide], the IC50 was determined as 4100 nM with HUVEC (Table 4, healthy cells); 6100 nM in the data set on Normal Human Fibroblast (Table 4, healthy cells); 607 nM in the data set with MV-4-11 (setting [2]); 9300 nM in the data set with K562 (setting [6]); 2900 nM in the data set on MOLM-13 (setting [7]). The solubility kinetic in data set [1] turned out to be 46 ± 4.4 µM.
Consider `O=C(CCCCCCNC(=O)c1cnc(N(c2ccccc2)c2ccccc2)nc1)NO` [Ricolinostat, reference compound], for which the IC50 came to 4900 nM in the data set on HUVEC; 5700 nM in the data set on Normal Human Fibroblast; 656 nM in the data set with MV-4-11 (MV4-11, read-out: IC50 MV-411); 12800 nM with K562 (K562, read-out: IC50 K562); 6490 nM in the data set with MOLM-13 (MOLM-13, read-out: IC50 MOLM-13). Also, in [1], the solubility kinetic is 26.1 ± 11.3 µM.
Regarding `O=C(/C=C/c1ccc(CN(C2CC2)S(=O)(=O)c2c(F)c(F)c(F)c(F)c2F)cc1)NO` [Compound I-56], the IC50 in the data set on MRC9 was greater than 50000 nM.
With `CC(C)N(Cc1ccc(C(=O)NO)cc1)S(=O)(=O)c1cc(F)c(F)c(F)c1F` [Compound I-12, N-hydroxy-4-((2,3,4,5-tetrafluoro-N-isopropylphenylsulfonamido)methyl)benzamide], in the data set on panel of 97 kinases, the “inhibitory activity on a panel of 97 kinases” value was “limited to no inhibitory activity”. Also, the solubility kinetic in data set [1] worked out at 74.5 ± 3 µM.
On to `O=C(/C=C/c1ccc(CNC(=O)c2cc(F)c(F)c(F)c2F)cc1)NO` [Compound I-82, (E)-2,3,4,5-tetrafluoro-N-(4-(3-(hydroxyamino)-3-oxoprop-1-en-1-yl)benzyl)benzamide], for which the figures for the IC50 on HDAC6 and in the data set on MV-4-11 (setting [3]) were 10 to 30 nM and 590 nM, respectively.
In the case of `O=C(CCCCCCNC(=O)c1cnc(N(c2ccccc2)c2ccccc2Cl)nc1)NO` [Citarinostat, reference compound], the “effect on α-tubulin acetylation (immunofluorescence)” value with HeLa cells is “no preferential acetylation on α-tubulin until high concentrations”.
Take `CC(C)N(Cc1cc(F)c(C(=O)NO)cc1F)S(=O)(=O)c1cc(F)c(F)c(F)c1F` [Compound I-52, 2,5-difluoro-N-hydroxy-4-(((2,3,4,5-tetrafluoro-N-isopropylphenyl)sulfonamido)methyl)benzamide]: the IC50 in the data set on MV-4-11 (setting [2]) is 1000 nM; in the data set with MM.1S it was 400 nM.
As for `O=C(/C=C/c1ccc(CN(Cc2cccnc2)S(=O)(=O)c2cc(F)c(F)c(F)c2F)c(C(F)(F)F)c1)NO` [Compound I-80], the IC50 in the data set on MV-4-11 (setting [3]) was found to be 338 nM; in the data set with K562 (setting [4]) it was 16300 nM; with MOLM-13 (setting [5]) it was 7600 nM.
